Results: ChEMBL document CHEMBL4613326 (J Med Chem, 2020)
Active and inactive are the calls of the source. The rule behind the calls is not given here.

Legend:
Autotaxin [1] = biological target: T1, Autotaxin (Homo sapiens, UniProt Q13822); assay: Inhibition of human ATX pre-incubated for 45 mins before fluorogenic substrate-3 addition and measured every minute for 30 mins by fluorescence based assay
Mus musculus [2] = assay: (§1) Protection against lung fibrosis in C57BL/6 mouse model of bleomycin sulfate-induced idiopathic pulmonary fibrosis assessed as induction of body weight recovery at 60 mg/kg, po dosed once daily for 31 days followed by bleomycin sulfate challenge on day 3; assay type: functional, organism-based
Mus musculus [3] = assay: Protection against lung fibrosis in C57BL/6 mouse model of bleomycin sulfate-induced idiopathic pulmonary fibrosis assessed as induction of body weight recovery at 20 mg/kg, po dosed once daily for 31 days followed by bleomycin sulfate challenge on day 3; assay type: functional, organism-based
Mus musculus [4] = assay: (§2) Ex-vivo inhibition of ATX lysoPLD activity in lung homogenate isolated from C57BL/6 mouse model of bleomycin sulfate-induced idiopathic pulmonary fibrosis assessed […] for artificial substrate FS-3 cleavage at 20 mg/kg, po dosed once daily for 31 days followed by bleomycin sulfate challenge on day 3 by fluorescence based assay; assay type: functional
Mus musculus [5] = assay: as §2, with “60” for “20”; assay type: functional
Mus musculus [6] = assay: as §2, with “20 to 60” for “20”; assay type: functional, organism-based
Mus musculus [7] = assay: (§3) Protection against lung fibrosis in C57BL/6 mouse model of bleomycin sulfate-induced idiopathic pulmonary fibrosis assessed as induction of improvement in histopathological changes by measuring modified Ashcroft score level at 20 mg/kg, po dosed once daily for 31 days followed by bleomycin sulfate challenge on day 3 by hematoxylin and eosin staining based assay (reference value: 6.28); assay type: functional
Mus musculus [8] = assay: as §3, with “lung texture” for “histopathological changes by measuring modified Ashcroft score level”, “assay” for “assay (reference value: 6.28)”; assay type: functional, organism-based
Mus musculus [9] = assay: as §3, with “60” for “20”; assay type: functional
Mus musculus [10] = assay: as §3, with “lung texture” for “histopathological changes by measuring modified Ashcroft score level”, “20 to 60” for “20”, “assay” for “assay (reference value: 6.28)”; assay type: functional, organism-based
Mus musculus [11] = assay: as §1, with “induction of improvement in lung texture at 60” for “induction of body weight recovery at 60”, “day 3 by hematoxylin and eosin staining based assay” for “day 3”; assay type: functional, organism-based
Autotaxin [12] = biological target: T1, Autotaxin
Description: Inhibition of human ATX by LPC choline release assay

Mus musculus [13] = assay: as §3, with “lung texture” for “histopathological changes”, “60” for “20”, “Masson” for “hematoxylin and eosin”, “assay” for “assay (reference value: 6.28)”; assay type: functional

SMILES	IC50 (Autotaxin [1]) [µM]	further results
CN1CCN(Cc2csc(-c3ccc4c(c3)c(C(=O)N/N=C/c3ccc(F)cc3)cn4C)n2)CC1	5.24	
CCN1CCN(Cc2csc(-c3ccc4c(c3)c(C(=O)N/N=C/c3ccc(F)cc3)cn4CC)n2)CC1	1.35	
CCn1cc(NC(=O)OCc2cc(Cl)cc(Cl)c2)c2cc(-c3nc(CN4CCC(O)CC4)cs3)ccc21	0.613	
CCn1cc(C(=O)N/N=C/c2ccc(F)cc2)c2cc(-c3nc(CN4CCC[C@H]4CO)cs3)ccc21	0.655	
C/C(=N\NC(=O)c1cn(C)c2ccc(-c3nc(CN4CCN(C)CC4)cs3)cc12)c1ccc(F)cc1	> 10	
Cn1cc(C(=O)N/N=C/c2ccc(Cl)cc2)c2cc(-c3nc(CN4CCOCC4)cs3)ccc21	> 10	
CCn1cc(C(=O)N/N=C/c2ccc(F)cc2)c2cc(-c3nc(CN4CCCCC4)cs3)ccc21	3.96	
CN1CCN(Cc2csc(-c3ccc4c(c3)c(C(=O)N/N=C/c3ccc5c(c3)OCO5)cn4C)n2)CC1	0.879	
CCN1CCN(Cc2csc(-c3ccc4c(c3)c(C(=O)N/N=C/c3ccc(Cl)cc3)cn4CC)n2)CC1	2.31	
CN(C)Cc1csc(-c2ccc3[nH]cc(C(=O)O)c3c2)n1	0.74	
CCc1nc2c(C)cc(N3CCN(CC(=O)N4CC(O)C4)CC3)cn2c1N(C)c1nc(-c2ccc(F)cc2)c(C#N)s1 [ZIRITAXESTAT]		Activity (Mus musculus [2]): Active; Activity (Mus musculus [5]): 4.03 a.u.; Activity (Mus musculus [11]): Active
CCn1cc(C(=O)N/N=C/c2ccc3c(c2)OCO3)c2cc(-c3nc(CN4CCC(C)CC4)cs3)ccc21	> 10	
CCCC[C@@H](CCCC(=O)NO)NC(=O)CCCCC(=O)Nc1ccccc1		IC50 (Autotaxin [12]): 0.06 µM
CCN1CCN(Cc2csc(-c3ccc4c(c3)c(C(=O)N/N=C(\C)c3ccc(F)cc3)cn4CC)n2)CC1	1.59	
CCn1cc(NC(=O)OCc2ccccc2)c2cc(-c3nc(CN4CCC(O)CC4)cs3)ccc21	0.97	
CCn1cc(C(=O)N/N=C/c2ccc(OC)cc2)c2cc(-c3nc(CN4CCCCC4)cs3)ccc21	1.46	
Cn1cc(C(=O)N/N=C/c2ccc(F)cc2)c2cc(-c3nc(CN4CCOCC4)cs3)ccc21	2.87	
CCn1cc(C(=O)N/N=C/c2ccc(OC)cc2)c2cc(-c3nc(CN4CCOCC4)cs3)ccc21	> 10	
CCn1cc(C(=O)N/N=C/c2ccc(F)cc2)c2cc(-c3nc(CN4CCC(C)CC4)cs3)ccc21	> 10	
CCn1cc(C(=O)N/N=C/c2ccc3c(c2)OCO3)c2cc(-c3nc(CN4CCOCC4)cs3)ccc21	> 10	
CCn1cc(C(=O)N/N=C/c2ccc3c(c2)OCO3)c2cc(-c3nc(CN4CCCCC4)cs3)ccc21	1.55	
CCn1cc(C(=O)N/N=C/c2ccc3c(c2)OCO3)c2cc(-c3nc(CN4CCN(C)CC4)cs3)ccc21	0.757	
CCn1cc(C(=O)N/N=C(\C)c2ccc(F)cc2)c2cc(-c3nc(CN4CCCC4)cs3)ccc21	2.74	
CCn1cc(C(=O)N/N=C/c2ccc(F)cc2)c2cc(-c3nc(CN4CCOCC4)cs3)ccc21	1.37	
CCn1cc(C(=O)N/N=C(\C)c2ccc(F)cc2)c2cc(-c3nc(CN4CCOCC4)cs3)ccc21	1.84	
CCn1cc(C(=O)N/N=C/c2ccc(Cl)cc2)c2cc(-c3nc(CN4CCCC4)cs3)ccc21	1.17	
CCn1cc(C(=O)N/N=C/c2ccc3c(c2)OCO3)c2cc(-c3nc(CN4CCN(CCO)CC4)cs3)ccc21	1.32	
Cn1cc(C(=O)N/N=C/c2ccc3c(c2)OCO3)c2cc(-c3nc(CN4CCOCC4)cs3)ccc21	> 10	
CCn1cc(C(=O)N/N=C(\C)c2ccc(F)cc2)c2cc(-c3nc(CN4CCN(C)CC4)cs3)ccc21	2.53	
CCn1cc(C(=O)N/N=C/c2ccc(F)cc2)c2cc(-c3nc(CN4CCC(O)CC4)cs3)ccc21	0.906	

Second part, led by results:

IC50 (Autotaxin [1]) [µM]	SMILES	further results
0.297	CCn1cc(NC(=O)OCc2ccc(F)c(F)c2)c2cc(-c3nc(CN4CCC[C@H]4CO)cs3)ccc21	
0.117	CCn1cc(NC(=O)O[C@H](C)c2ccc(C)cc2)c2cc(-c3nc(CN4CCC(O)CC4)cs3)ccc21	
0.199	CCn1cc(NC(=O)O[C@H](C)c2ccccc2Cl)c2cc(-c3nc(CN4CCC[C@H]4CO)cs3)ccc21	
0.00101	CCn1cc(NC(=O)OCc2ccc(F)c(F)c2)c2cc(-c3nc(CN4CCC(O)CC4)cs3)ccc21	Activity (Mus musculus [2]): Active; Activity (Mus musculus [3]): Active; Activity (Mus musculus [4]): 3.85 a.u.; Activity (Mus musculus [5]): 3.37 a.u.; inhibition (Mus musculus [6]): Dose-dependent effect; Activity_index (Mus musculus [7]): 4.66; Activity (Mus musculus [8]): Active; Activity_index (Mus musculus [9]): 3.2; Activity (Mus musculus [10]): Dose-dependent effect
0.231	CCn1cc(C(=O)N/N=C/c2ccc(Cl)cc2)c2cc(-c3nc(CN4CCN(CCO)CC4)cs3)ccc21	
0.107	CCn1cc(C(=O)N/N=C/c2ccc3c(c2)OCO3)c2cc(-c3nc(CN4CCC(O)CC4)cs3)ccc21	
0.0213	CCn1cc(NC(=O)OCc2cc(Cl)cc(Cl)c2)c2cc(-c3nc(CN(CCO)CCO)cs3)ccc21	
0.0694	CCn1cc(C(=O)N/N=C(\C)c2ccc(F)cc2)c2cc(-c3nc(CN4CCC(O)CC4)cs3)ccc21	
0.0369	CCn1cc(NC(=O)O[C@H](C)c2ccc(C)cc2)c2cc(-c3nc(CN4CCC[C@H]4CO)cs3)ccc21	
0.127	CCn1cc(NC(=O)OCc2cccc(Cl)c2Cl)c2cc(-c3nc(CN4CCC(O)CC4)cs3)ccc21	
0.0157	CCn1cc(C(=O)N/N=C(\C)c2ccc(F)cc2)c2cc(-c3nc(CN4CCC[C@H]4CO)cs3)ccc21	
0.135	CCn1cc(C(=O)N/N=C/c2ccc(F)cc2)c2cc(-c3nc(CN4CCN(CCO)CC4)cs3)ccc21	
0.122	CCn1cc(NC(=O)OCc2ccccc2)c2cc(-c3nc(CN4CCC[C@H]4CO)cs3)ccc21	
0.0341	CCn1cc(NC(=O)OCc2ccc3c(c2)OCO3)c2cc(-c3nc(CN4CCC(O)CC4)cs3)ccc21	
0.508	CCn1cc(C(=O)N/N=C(\C)c2ccc(F)cc2)c2cc(-c3nc(CN4CCN(CCO)CC4)cs3)ccc21	
0.61	CCn1cc(C(=O)N/N=C/c2ccc3c(c2)OCO3)c2cc(-c3nc(CN4CCC[C@H]4CO)cs3)ccc21	
0.21	CCn1cc(NC(=O)O[C@H](C)c2ccccc2Cl)c2cc(-c3nc(CN4CCC(O)CC4)cs3)ccc21	
0.0627	CCn1cc(NC(=O)OCc2cccc(Cl)c2Cl)c2cc(-c3nc(CN4CCN(CCO)CC4)cs3)ccc21	
0.00043	CCn1cc(NC(=O)OCc2cc(Cl)cc(Cl)c2)c2cc(-c3nc(CN4CCN(CCO)CC4)cs3)ccc21	Activity (Mus musculus [2]): Active; Activity (Mus musculus [3]): Active; Activity (Mus musculus [4]): 3.43 a.u.; Activity (Mus musculus [5]): 3.25 a.u.; inhibition (Mus musculus [6]): Dose-dependent effect; Activity (Mus musculus [8]): Active; Activity_index (Mus musculus [9]): 2.04; Activity_index (Mus musculus [13]): 2.01
0.0307	CCn1cc(NC(=O)OCc2ccc3c(c2)OCO3)c2cc(-c3nc(CN(CCO)CCO)cs3)ccc21	
0.0347	CCn1cc(NC(=O)OCc2ccc3c(c2)OCO3)c2cc(-c3nc(CN4CCC[C@H]4CO)cs3)ccc21	
0.18	CCn1cc(C(=O)N/N=C/c2ccc(Cl)cc2)c2cc(-c3nc(CN4CCC(O)CC4)cs3)ccc21	
